Experimental data: US20250145633A1, “SUBSTITUTED FURANOPYRIMIDINE COMPOUNDS AS PDE1 INHIBITORS” (Dart NeuroScience, LLC, priority 2017, published 2025)

Target: human PDE1B enzyme (Homo sapiens (Human), UniProt Q01064)
Test: IMAP TR-FRET PDE1B enzymatic assay
Type: biochemical
Settings: negative log of half-maximal molar inhibitory concentration, 200 nM FAM-cAMP, values given as bins; for IC50: read-out: PDE1b (pIC50) (converted)
How it was run: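 Full-length GST-tagged human PDE1B (250 pg/well) in IMAP BSA buffer with 10 U/ml calmodulin and 2.5 mM CaCl2; compound pre-incubated 5 min at room temperature, then 200 nM (final) FAM-cAMP for 30 min. IMAP binding reagent/Tb added, 1 h; TR-FRET 520/490 ratio read. IC50 from sigmoidal dose-response fit.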

SMILES: Cc1oc2ncnc(NC3(C)CC3)c2c1C(=O)N1CCn2cncc2C1 [Example 640, 5-{5H,6H,7H,8H-Imidazo[1,5-a]pyrazine-7-carbonyl}-6-methyl-N-(1-methylcyclopropyl)furo[2,3-d]pyrimidin-4-amine]
- IC50: 100 to 1000 nM

SMILES: Cc1oc2ncnc(NC3(C)CC3)c2c1C(=O)N1CCn2ncc(Br)c2C1 [Example 641, 5-{3-Bromo-4H,5H,6H,7H-pyrazolo[1,5-a]pyrazine-5-carbonyl}-6-methyl-N-(1-methylcyclopropyl)furo[2,3-d]pyrimidin-4-amine]
- IC50: 100 to 1000 nM

SMILES: Cc1oc2ncnc(NC3(C)CC3)c2c1C(=O)N1CCc2cc(Cl)ncc2C1 [Example 642, 5-(6-Chloro-1,2,3,4-tetrahydro-2,7-naphthyridine-2-carbonyl)-6-methyl-N-(1-methylcyclopropyl)furo[2,3-d]pyrimidin-4-amine]
- IC50: 10 to 100 nM

SMILES: CON(C)C(=O)c1c(C)oc2ncnc(NC3(C)CC3)c12 [Example 643, N-Methoxy-N,6-dimethyl-4-[(1-methylcyclopropyl)amino]furo[2,3-d]pyrimidine-5-carboxamide]
- IC50: 100 to 1000 nM

SMILES: Cc1oc2ncnc(NC3(C)CC3)c2c1C(=O)NCc1ccnc(C(C)C)n1 [Example 644, 6-Methyl-4-[(1-methylcyclopropyl)amino]-N-{[2-(propan-2-yl)pyrimidin-4-yl]methyl}furo[2,3-d]pyrimidine-5-carboxamide]
- IC50: 10 to 100 nM

SMILES: Cc1oc2ncnc(NC3(C)CC3)c2c1C(=O)Nc1cnn(C2CC2)c1 [Example 645, N-(1-Cyclopropyl-1H-pyrazol-4-yl)-6-methyl-4-[(1-methylcyclopropyl)amino]furo[2,3-d]pyrimidine-5-carboxamide]
- IC50: 10 to 100 nM

SMILES: Cc1oc2ncnc(NC3(C)CC3)c2c1C(=O)NCc1cnn(C)c1 [Example 646, 6-Methyl-N-[(1-methyl-1H-pyrazol-4-yl)methyl]-4-[(1-methylcyclopropyl)amino]furo[2,3-d]pyrimidine-5-carboxamide]
- IC50: 10 to 100 nM

SMILES: Cc1oc2ncnc(NC3(C)CC3)c2c1C(=O)NCc1cncnc1 [Example 647, 6-Methyl-4-[(1-methylcyclopropyl)amino]-N-(pyrimidin-5-ylmethyl)furo[2,3-d]pyrimidine-5-carboxamide]
- IC50: 100 to 1000 nM

SMILES: Cc1oc2ncnc(NC3(C)CC3)c2c1C(=O)NCc1ncc2c(n1)CCC2 [Example 648, N-{5H,6H,7H-Cyclopenta[d]pyrimidin-2-ylmethyl}-6-methyl-4-[(1-methylcyclopropyl)amino]furo[2,3-d]pyrimidine-5-carboxamide]
- PDE1b (pIC50): >8

SMILES: Cc1cc(C(F)(F)F)nc(CNC(=O)c2c(C)oc3ncnc(NC4(C)CC4)c23)n1 [Example 649, 6-Methyl-N-{[4-methyl-6-(trifluoromethyl)pyrimidin-2-yl]methyl}-4-[(1-methylcyclopropyl)amino]furo[2,3-d]pyrimidine-5-carboxamide]
- PDE1b (pIC50): >8

SMILES: Cc1oc2ncnc(NC3(C)CC3)c2c1C(=O)NC1CCN(c2ccccn2)CC1 [Example 650, 6-Methyl-4-[(1-methylcyclopropyl)amino]-N-[1-(pyridin-2-yl)piperidin-4-yl]furo[2,3-d]pyrimidine-5-carboxamide]
- IC50: 10 to 100 nM

SMILES: Cc1nc2cc(NC(=O)c3c(C)oc4ncnc(NC5(C)CC5)c34)ccc2o1 [Example 651, 6-Methyl-N-(2-methyl-1,3-benzoxazol-5-yl)-4-[(1-methylcyclopropyl)amino]furo[2,3-d]pyrimidine-5-carboxamide]
- IC50: 10 to 100 nM

SMILES: Cc1oc2ncnc(NC3(C)CC3)c2c1C(=O)NCc1ccncn1 [Example 652, 6-Methyl-4-[(1-methylcyclopropyl)amino]-N-(pyrimidin-4-ylmethyl)furo[2,3-d]pyrimidine-5-carboxamide]
- IC50: 10 to 100 nM

SMILES: Cc1oc2ncnc(NC3(C)CC3)c2c1C(=O)NCc1ncccn1 [Example 653, 6-Methyl-4-[(1-methylcyclopropyl)amino]-N-(pyrimidin-2-ylmethyl)furo[2,3-d]pyrimidine-5-carboxamide]
- IC50: 10 to 100 nM

SMILES: Cc1cc(CNC(=O)c2c(C)oc3ncnc(NC4(C)CC4)c23)ncn1 [Example 654, 6-Methyl-4-[(1-methylcyclopropyl)amino]-N-[(6-methylpyrimidin-4-yl)methyl]furo[2,3-d]pyrimidine-5-carboxamide]
- IC50: 10 to 100 nM

SMILES: Cc1oc2ncnc(NC3(C)CC3)c2c1C(=O)Nc1ccc(N2CCOCC2)cc1 [Example 655, 6-Methyl-4-[(1-methylcyclopropyl)amino]-N-[4-(morpholin-4-yl)phenyl]furo[2,3-d]pyrimidine-5-carboxamide]
- IC50: 10 to 100 nM

SMILES: Cc1oc2ncnc(NC3(C)CC3)c2c1C(=O)Nc1ccc(N2CCOCC2)nn1 [Example 656, 6-Methyl-4-[(1-methylcyclopropyl)amino]-N-[6-(morpholin-4-yl)pyridazin-3-yl]furo[2,3-d]pyrimidine-5-carboxamide]
- IC50: 100 to 1000 nM

SMILES: Cc1oc2ncnc(NC3(C)CC3)c2c1C(=O)Nc1cnc(N2CCOCC2)nc1 [Example 657, 6-Methyl-4-[(1-methylcyclopropyl)amino]-N-[2-(morpholin-4-yl)pyrimidin-5-yl]furo[2,3-d]pyrimidine-5-carboxamide]
- IC50: 10 to 100 nM

SMILES: Cc1oc2ncnc(NC3(C)CC3)c2c1C(=O)Nc1cnc(N2CCOCC2)cn1 [Example 658, 6-Methyl-4-[(1-methylcyclopropyl)amino]-N-[5-(morpholin-4-yl)pyrazin-2-yl]furo[2,3-d]pyrimidine-5-carboxamide]
- IC50: 10 to 100 nM

SMILES: Cc1ncncc1CNC(=O)c1c(C)oc2ncnc(NC3(C)CC3)c12 [Example 659, 6-Methyl-4-[(1-methylcyclopropyl)amino]-N-[(4-methylpyrimidin-5-yl)methyl]furo[2,3-d]pyrimidine-5-carboxamide]
- IC50: 10 to 100 nM

SMILES: Cc1oc2ncnc(NC3(C)CC3)c2c1C(=O)NC1CCN(c2cnccn2)CC1 [Example 660, 6-Methyl-4-[(1-methylcyclopropyl)amino]-N-[1-(pyrazin-2-yl)piperidin-4-yl]furo[2,3-d]pyrimidine-5-carboxamide]
- IC50: 10 to 100 nM

SMILES: Cc1oc2ncnc(NC3(C)CC3)c2c1C(=O)NCc1cc(=O)[nH]cn1 [Example 661, 6-Methyl-4-[(1-methylcyclopropyl)amino]-N-[(6-oxo-1,6-dihydropyrimidin-4-yl)methyl]furo[2,3-d]pyrimidine-5-carboxamide]
- IC50: 10 to 100 nM

SMILES: Cc1nc(CNC(=O)c2c(C)oc3ncnc(NC4(C)CC4)c23)cc(=O)[nH]1 [Example 662, 6-Methyl-N-[(2-methyl-6-oxo-1,6-dihydropyrimidin-4-yl)methyl]-4-[(1-methylcyclopropyl)amino]furo[2,3-d]pyrimidine-5-carboxamide]
- IC50: 10 to 100 nM

SMILES: COc1ncnc2c1CN(C(=O)c1c(C)oc3ncnc(NC4(C)CC4)c13)CC2 [Example 663, 5-{4-Methoxy-5H,6H,7H,8H-pyrido[4,3-d]pyrimidine-6-carbonyl}-6-methyl-N-(1-methylcyclopropyl)furo[2,3-d]pyrimidin-4-amine]
- IC50: 100 to 1000 nM

SMILES: Cc1oc2ncnc(NC3(C)CC3)c2c1C(=O)NCc1ncc(C(C)C)o1 [Example 664, 6-Methyl-4-[(1-methylcyclopropyl)amino]-N-{[5-(propan-2-yl)-1,3-oxazol-2-yl]methyl}furo[2,3-d]pyrimidine-5-carboxamide]
- IC50: 10 to 100 nM

SMILES: Cc1oc2ncnc(NC3(C)CC3)c2c1C(=O)NC1CCN(c2ncccn2)CC1 [Example 665, 6-Methyl-4-[(1-methylcyclopropyl)amino]-N-[1-(pyrimidin-2-yl)piperidin-4-yl]furo[2,3-d]pyrimidine-5-carboxamide]
- IC50: 10 to 100 nM

SMILES: COc1cc(CNC(=O)c2c(C)oc3ncnc(NC4(C)CC4)c23)ncn1 [Example 666, N-[(6-Methoxypyrimidin-4-yl)methyl]-6-methyl-4-[(1-methylcyclopropyl)amino]furo[2,3-d]pyrimidine-5-carboxamide]
- PDE1b (pIC50): >8

SMILES: COc1cc(CNC(=O)c2c(C)oc3ncnc(NC4(C)CC4)c23)nc(C)n1 [Example 667, N-[(6-Methoxy-2-methylpyrimidin-4-yl)methyl]-6-methyl-4-[(1-methylcyclopropyl)amino]furo[2,3-d]pyrimidine-5-carboxamide]
- PDE1b (pIC50): >8

SMILES: Cc1oc2ncnc(NC3(C)CC3)c2c1C(=O)N1CCc2cnccc2C1 [Example 668, 6-Methyl-N-(1-methylcyclopropyl)-5-(1,2,3,4-tetrahydro-2,6-naphthyridine-2-carbonyl)furo[2,3-d]pyrimidin-4-amine]
- IC50: 10 to 100 nM

SMILES: Cc1oc2ncnc(NC3(C)CC3)c2c1C(=O)NC1CCN(c2ccccn2)C1 (stereo not shown) [Example 669, 6-Methyl-4-[(1-methylcyclopropyl)amino]-N-[1-(pyridin-2-yl)pyrrolidin-3-yl]furo[2,3-d]pyrimidine-5-carboxamide]
- IC50: 10 to 100 nM

SMILES: Cc1nccc(N2CCC(NC(=O)c3c(C)oc4ncnc(NC5(C)CC5)c34)CC2)n1 [Example 670, 6-Methyl-4-[(1-methylcyclopropyl)amino]-N-[1-(2-methylpyrimidin-4-yl)piperidin-4-yl]furo[2,3-d]pyrimidine-5-carboxamide]
- IC50: 100 to 1000 nM

SMILES: Cc1cc(N2CCC(NC(=O)c3c(C)oc4ncnc(NC5(C)CC5)c34)CC2)ncn1 [Example 671, 6-Methyl-4-[(1-methylcyclopropyl)amino]-N-[1-(6-methylpyrimidin-4-yl)piperidin-4-yl]furo[2,3-d]pyrimidine-5-carboxamide]
- IC50: 100 to 1000 nM

SMILES: Cc1cc(N2CCC(NC(=O)c3c(C)oc4ncnc(NC5(C)CC5)c34)CC2)nc(C)n1 [Example 672, N-[1-(2,6-Dimethylpyrimidin-4-yl)piperidin-4-yl]-6-methyl-4-[(1-methylcyclopropyl)amino]furo[2,3-d]pyrimidine-5-carboxamide]
- IC50: 100 to 1000 nM

SMILES: Cc1ncc(CNC(=O)c2c(C)oc3ncnc(NC4(C)CC4)c23)c(=O)[nH]1 [Example 673, 6-Methyl-N-[(2-methyl-6-oxo-1,6-dihydropyrimidin-5-yl)methyl]-4-[(1-methylcyclopropyl)amino]furo[2,3-d]pyrimidine-5-carboxamide]
- IC50: 10 to 100 nM
